Tested on: IL-1β production in PMA-differentiated THP-1 cells
Test: IL-1β production in PMA-differentiated THP-1 cells stimulated with gramicidin (hTHP-1 assay, 2% fetal bovine serum; Procedures 1-3)
Type: cell-based, human
Conditions: hTHP-1 assay containing 2% fetal bovine serum; class symbols; read-out: hTHP-1 IC50 (Average IC50 of compounds in hTHP-1 assay)
Method in brief: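 Readout is HTRF of IL-1β in cell-free supernatant after 2 h gramicidin (5 μM) challenge. Cells: THP-1 differentiated with PMA 20 ng/ml for 16-18 h, plated 50,000/well in 2% FBS RPMI, exposed to compound 1 h beforehand at final 100–0.0017 μM, DMSO 0.37%.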

Row | Structure (SMILES) | IC50
2 | CC(C)(O)c1cc(S(N)(=O)=NC(=O)Nc2c3c(cc4c2CCC4)CCC3)nn1-c1ccccc1 (single isomer, unassigned) [Example 308, (S) or (R)-N′-((1,2,3,5,6,7-hexahydro-s-indacen-4-yl)carbamoyl)-5-(2-hydroxypropan-2-yl)-1-phenyl-1H-pyrazole-3-sulfonimidamide] | 1 to 5 µM
3 | CC(C)(O)c1cc(S(N)(=O)=NC(=O)Nc2c3c(cc4c2CCC4)CCC3)nn1-c1ccccc1 (single isomer, unassigned) [Example 309, (R) or (S)-N′-((1,2,3,5,6,7-hexahydro-s-indacen-4-yl)carbamoyl)-5-(2-hydroxypropan-2-yl)-1-phenyl-1H-pyrazole-3-sulfonimidamide] | 0.04 to 0.2 µM
4 | CC(C)(O)c1csc(S(N)(=O)=NC(=O)Nc2c3c(c(F)c4c2CCC4)CCC3)n1 (single isomer, unassigned) [Example 310, (R) or (S)-N′-((8-fluoro-1,2,3,5,6,7-hexahydro-s-indacen-4-yl)carbamoyl)-4-(2-hydroxypropan-2-yl)thiazole-2-sulfonimidamide] | 0.008 to 0.04 µM
5 | CC(C)(O)c1csc(S(N)(=O)=NC(=O)Nc2c3c(c(F)c4c2CCC4)CCC3)n1 (single isomer, unassigned) [Example 311, (S) or (R)-N′-((8-fluoro-1,2,3,5,6,7-hexahydro-s-indacen-4-yl)carbamoyl)-4-(2-hydroxypropan-2-yl)thiazole-2-sulfonimidamide] | 0.2 to 1 µM
6 | CNCc1ccc(S(N)(=O)=NC(=O)Nc2c3c(cc4c2CCC4)CCC3)cc1 (single isomer, unassigned) [Example 314, (S) or (R)-N′-((1,2,3,5,6,7-hexahydro-s-indacen-4-yl)carbamoyl)-4-((methylamino)methyl)benzenesulfonimidamide] | 0.2 to 1 µM
7 | CNCc1ccc(S(N)(=O)=NC(=O)Nc2c3c(cc4c2CCC4)CCC3)cc1 (single isomer, unassigned) [Example 315, (R) or (S)-N′-((1,2,3,5,6,7-hexahydro-s-indacen-4-yl)carbamoyl)-4-((methylamino)methyl)benzenesulfonimidamide] | 5 to 30 µM
8 | CC(C)c1cc(C#N)c(F)c(C(C)C)c1NC(=O)N=S(N)(=O)c1cnc(C(C)(O)CO)s1 (single isomer, unassigned) [Example 316, Two isomers of (R,R) or (R,S) or (S,S) or (S,R)-N′-((4-cyano-3-fluoro-2,6-diisopropylphenyl)carbamoyl)-2-(1,2-dihydroxypropan-2-yl)thiazole-5-sulfonimidamide] | 0.2 to 1 µM
9 | CC(C)c1cc(C#N)c(F)c(C(C)C)c1NC(=O)N=S(N)(=O)c1cnc(C(C)(O)CO)s1 (single isomer, unassigned) [Example 317, (R,R) or (R,S) or (S,S) or (S,R)-N-((4-cyano-3-fluoro-2,6-diisopropylphenyl)carbamoyl)-2-(1,2-dihydroxypropan-2-yl)thiazole-5-sulfonimidamide] | 1 to 5 µM
10 | CC(C)c1cc(C#N)c(F)c(C(C)C)c1NC(=O)N=S(N)(=O)c1cnc(C(C)(O)CO)s1 (single isomer, unassigned) [Example 318, (S,S) or (S,R) or (R,R) or (R,S)-N-((4-cyano-3-fluoro-2,6-diisopropylphenyl)carbamoyl)-2-(1,2-dihydroxypropan-2-yl)thiazole-5-sulfonimidamide] | 0.2 to 1 µM
11 | CC(C)(O)c1ccc(S(N)(=O)=NC(=O)Nc2c3c(cc4c2CCC4)CCC3)cn1 (single isomer, unassigned) [Example 319, (S) or (R)-N′-((1,2,3,5,6,7-hexahydro-s-indacen-4-yl)carbamoyl)-6-(2-hydroxypropan-2-yl)pyridine-3-sulfonimidamide] | 1 to 5 µM

Source: US11724992B2 (Novartis AG, priority 2017, dated 2023)
